These compounds were tested against T1, WD repeat-containing protein 5 (Homo sapiens, UniProt P61964) (assay: Inhibition of 10mer-Thr-FAM probe binding to His-tagged human WDR5 expressed in Escherichia coli incubated for 2 hrs by fluorescence polarization assay).

IC50 [µM] | Compound
> 20 | Cc1c(F)ccc(C(=O)Nc2ccc(-c3ccncc3)cc2N2CCN(C)CC2)c1Cl
> 20 | CN1CCN(c2ccc([N+](=O)[O-])cc2NS(=O)(=O)c2ccc(F)cc2)CC1
0.466 | Cc1c(F)ccc(C(=O)Nc2cc(-c3ccccc3)ccc2N2CCN(C)CC2)c1Cl
> 20 | COc1cccc(NC(=O)c2cc([N+](=O)[O-])ccc2N2CCN(C)CC2)c1
> 20 | CN1CCN(c2ccc([N+](=O)[O-])cc2C(=O)Nc2ccc(F)cc2F)CC1
0.206 | Cc1c(F)ccc(C(=O)Nc2cc(-c3ccc(N)cc3)ccc2N2CCN(C)CC2)c1Cl
> 20 | COc1ccc(S(=O)(=O)Nc2cc([N+](=O)[O-])ccc2N2CCN(C)CC2)cc1
> 20 | Cc1c(F)ccc(C(=O)Nc2ccc(-c3ccc(N)cc3)cc2N2CCN(C)CC2)c1Cl
0.104 | Cc1c(F)ccc(C(=O)Nc2cc(-c3ccncc3)ccc2N2CCN(C)CC2)c1Cl
0.207 | Cc1c(F)c([N+](=O)[O-])cc(C(=O)Nc2cc(-c3ccccc3)ccc2N2CCN(C)CC2)c1Cl
> 20 | Cc1c(F)ccc(C(=O)Nc2ccc(-c3ccc(C(=O)O)cc3)cc2N2CCN(C)CC2)c1Cl
> 20 | Cc1cc(C)c(S(=O)(=O)Nc2cc([N+](=O)[O-])ccc2N2CCN(C)CC2)c(C)c1
> 20 | Cc1c(F)ccc(C(=O)Nc2cc(N)ccc2N2CCN(C)CC2)c1Cl
> 20 | CN1CCN(c2ccc([N+](=O)[O-])cc2C(=O)Nc2ccccc2Cl)CC1
> 20 | Cc1c(F)ccc(C(=O)Nc2ccc(-c3ccc([N+](=O)[O-])cc3)cc2N2CCN(C)CC2)c1Cl
> 20 | COc1ccc(S(=O)(=O)Nc2cc([N+](=O)[O-])ccc2N2CCN(C)CC2)cc1OC

The compounds below were run against T1, WD repeat-containing protein 5 (assay: Binding affinity to His-tagged human WDR5 expressed in Escherichia coli by isothermal titration calorimetry).

Kd [µM] | Compound
0.133 | Cc1c(F)ccc(C(=O)Nc2cc(-c3ccncc3)ccc2N2CCN(C)CC2)c1Cl

Reference: ChEMBL document CHEMBL3822451, “Structure-based design and synthesis of small molecular inhibitors disturbing the interaction of MLL1-WDR5” (Eur J Med Chem, 2016)
